Data reported in patent publication US11192899B2 (MERCK PATENT GMBH, priority 2017, dated 2021).
Like-named read-outs stand apart in the source and are kept apart here.

Tests used:
[1] = target: T1, A2B receptors (Homo sapiens, UniProt P29275); conditions: cited from earlier work
T1 sequence (P29275 1-332): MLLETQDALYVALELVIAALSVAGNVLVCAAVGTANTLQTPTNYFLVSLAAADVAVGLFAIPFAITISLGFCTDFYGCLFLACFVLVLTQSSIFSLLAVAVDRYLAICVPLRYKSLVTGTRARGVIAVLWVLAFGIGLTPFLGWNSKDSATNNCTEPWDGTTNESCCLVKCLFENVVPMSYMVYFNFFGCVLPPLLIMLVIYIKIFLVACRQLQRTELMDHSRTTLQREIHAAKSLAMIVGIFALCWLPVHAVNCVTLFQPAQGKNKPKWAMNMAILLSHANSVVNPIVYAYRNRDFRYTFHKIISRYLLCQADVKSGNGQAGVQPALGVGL

[2] = tested on: mouse Pan T cells; experiment: rescue of cytokine (IL-2, IFN-γ) secretion of CD3/CD28-activated mouse Pan T cells inhibited by CGS-21680; format: cell-based; conditions: for IC50: Mus musculus, T-cell
Text: Adenosine (Ado) in tumor microenvironment can inhibit T cell activity by signaling through A2A receptors and suppress cytokine secretion by T cells. […] Potential A2A antagonists or A2A/A2B dual antagonists can rescue T cells from this inhibition. Herein, we describe the in vitro system we established using Pan T cells from mouse spleens to screen potential A2A antagonists or A2A/A2B dual antagonists for their activity. The method described involves the use of CD3/CD28 pre-coated beads to stimulate Pan T cells purified from mouse splenocytes, combined with the addition of A2A agonist along with potential A2A or A2A/A2B dual antagonists to evaluate potentiation of T cell cytokine production.
Briefly, mouse Pan T cells are purified from spleens of BALB/c mice using Pan T cell isolation kit Mouse II (MACS Miltenyi biotech Cat #Order no. 130-095-130) according to manufacturer's protocol. The purified T cells are seeded in Nunc™ 96-Well Polystyrene Round Bottom Microwell Plates in RPMI medium with 10% heat inactivated fetal bovine serum. The cells are rested at 37° C. for 1 h before activating with CD3/CD28 pre-coated beads (Dynabeads™ Mouse T-Activator CD3/CD28; Cat #11456D). After 30 min the cells are treated with varying doses of test antagonist(s). […] After 24 h incubation IL-2 levels in the supernatants and after 48 h incubation IFN-γ levels in the supernatants are measured by ELISAs according to manufacturer's protocol (R&D systems Cat #DY402 (IL-2); DY485 (IFN-γ)). Once the concentrations are calculated, the difference of cytokine concentration of DMSO control and agonist alone control is calculated (called Δ) and the percentage of rescue by each concentration of antagonist is calculated by using Microsoft Excel. These percentages of cytokine rescue in a dose dependent manner of antagonist is plotted in GraphPad Prism software and IC50 is calculated.

[3] = pharmacokinetics in mouse after single intravenous and oral administration; conditions: for Feces iv [%]: iv @ 0.2, excretion as % of dose; for Vd / clearance / half-life / Cmax: female, mouse; for Vd / clearance / half-life: 0.2 mg/kg; for Cmax: 1 mg/kg
Text: Female Wistar rats/mice (n=6) received either a single intravenous (bolus) injection or an oral administration (by gavage) of the tested compound.
The concentrations of the compounds in plasma, feces were quantified using an UPLC method with tandem mass spectrometric detection (LC-MS/MS) previously developed at the ‘Institute of Drug Metabolism and Pharmacokinetics’. The LCMS/MS system consisted of a Waters Acquity UPLC coupled to an AB Sciex mass spectrometer API 5500 Q-trap. […] The detection of the compounds was performed using multiple reaction monitoring in the positive ionization mode. Plasma samples were spiked with internal standard (20 μl) and the analyte was extracted from the matrix using tertiary-butyl methyl ether (tBME). The organic phase was evaporated to dryness under a stream of nitrogen. The residue was dissolved in acetonitrile/0.1% formic acid for LC-MS/MS analysis. Feces samples were homogenized with 4-times their volume of an ethanol/water mixture (4:1, v/v). Aliquots of the aqueous-ethanolic extracts were spiked with internal standard, diluted with acetonitrile/water (1:1, v/v) and directly injected into the LC-MS/MS system.
Pharmacokinetic parameters Cmax and tmax were taken from the observed data. […] AUC values were calculated by non-compartmental analysis using the linear up/log down method. Numerical data for mean plasma concentrations and derived pharmacokinetic parameters were rounded to 3 significant digits for presentation.

[4] = target: T2, human A2A receptor (Homo sapiens, UniProt P29274); experiment: cAMP HTRF functional assay, recombinant HEK293 cells expressing human A2A receptor, agonist NECA; format: cell-based
T2 construct: expressed in transfected cells; host or cells: HEK293
T2 sequence (P29274 whole entry): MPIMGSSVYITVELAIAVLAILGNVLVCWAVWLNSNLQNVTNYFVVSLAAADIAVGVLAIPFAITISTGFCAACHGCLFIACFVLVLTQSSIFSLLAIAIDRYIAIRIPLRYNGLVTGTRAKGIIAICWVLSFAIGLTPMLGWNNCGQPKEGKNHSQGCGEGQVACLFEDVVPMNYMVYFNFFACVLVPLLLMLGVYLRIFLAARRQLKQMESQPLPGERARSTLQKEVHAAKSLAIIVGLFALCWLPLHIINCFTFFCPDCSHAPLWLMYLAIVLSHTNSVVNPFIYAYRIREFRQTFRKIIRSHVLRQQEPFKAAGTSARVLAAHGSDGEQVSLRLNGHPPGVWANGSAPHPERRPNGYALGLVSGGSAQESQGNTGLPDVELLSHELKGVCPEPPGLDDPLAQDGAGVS
Procedure: (§1) The functional activities of human A2A, A2B, A1 and A3 receptors were determined by quantification of cAMP, being the second messenger for adenosine receptors.
(§2) Obtained raw data were normalized against the inhibitor control and the neural control (DMSO) and the normalized data were fitted using GeneData software.

[5] = target: T3, human A1 receptor (Homo sapiens, UniProt P30542); experiment: cAMP HTRF functional assay, recombinant CHO cells expressing human A1 receptor, forskolin and agonist CPA; format: cell-based
T3 construct: expressed in transfected cells; host or cells: CHO
T3 sequence (P30542 1-326): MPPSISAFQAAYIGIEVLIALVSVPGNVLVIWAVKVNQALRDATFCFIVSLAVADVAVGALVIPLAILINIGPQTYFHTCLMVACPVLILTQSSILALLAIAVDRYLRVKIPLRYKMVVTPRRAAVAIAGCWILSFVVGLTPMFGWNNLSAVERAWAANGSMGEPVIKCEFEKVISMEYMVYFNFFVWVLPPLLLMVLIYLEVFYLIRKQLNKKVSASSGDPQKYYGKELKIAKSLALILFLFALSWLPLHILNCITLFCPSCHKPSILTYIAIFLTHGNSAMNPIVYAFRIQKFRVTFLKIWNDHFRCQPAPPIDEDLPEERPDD
Procedure: as §1
(§3) For human A1 and A3 receptors, recombinant CHO cells, expressing either A1 or A3-receptor, were used. As both receptors couple to Gi proteins, the assay protocol was adapted:
(§4) Cells were seeded into 384-well plates, forskolin, test compounds and agonists (CPA for A1- and IB-MECA for A3-receptor) were added. After 30 min incubation, HTRF reagents (cAMP dynamic 2, Cis Bio) were added and the cellular cAMP levels were determined using the ENVISION (Perkin Elmer) plate reader.
as §2

[6] = target: T4, human A3 receptor (Homo sapiens, UniProt P0DMS8); experiment: cAMP HTRF functional assay, recombinant CHO cells expressing human A3 receptor, forskolin and agonist IB-MECA; format: cell-based
T4 construct: expressed in transfected cells; host or cells: CHO
T4 sequence (P0DMS8 1-318): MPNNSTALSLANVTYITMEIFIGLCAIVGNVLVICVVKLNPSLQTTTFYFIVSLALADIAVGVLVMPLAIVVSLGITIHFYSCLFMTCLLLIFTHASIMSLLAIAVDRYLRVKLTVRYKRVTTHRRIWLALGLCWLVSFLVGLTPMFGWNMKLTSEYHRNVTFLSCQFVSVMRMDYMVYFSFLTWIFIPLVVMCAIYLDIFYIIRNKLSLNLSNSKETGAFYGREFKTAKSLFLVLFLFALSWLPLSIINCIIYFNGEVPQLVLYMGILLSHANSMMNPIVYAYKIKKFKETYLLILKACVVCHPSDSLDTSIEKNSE
Procedure: as §1, §3, §4, §2

[7] = target: T1, A2B receptors; experiment: cAMP HTRF functional assay, recombinant HEK293 cells expressing human A2B receptor, agonist NECA; format: cell-based; design: expressed in transfected cells; host or cells: HEK293
Procedure: as §1, §2

[8] = 24 h, read-out: Mouse T-Cell IL-2

Feces iv [%] ([3]; PK data in mouse) | IC50 [4] [nM] | IC50 [5] [nM] | IC50 [6] [nM] | IC50 [7] [nM] | Vd ([3]; plasma, iv) [L/kg] | clearance ([3]; plasma, iv) [mL/min/kg] | SMILES | further results
 |  |  |  |  |  |  | CCCn1c(=O)c2[nH]c(-c3ccc(S(=O)(=O)O)cc3)nc2n(CCC)c1=O [DPSPX, 1,3-dipropyl-8-sulphophenylxanthine] | affinity for A2B receptors [1]: mid to high nM range
23 @ 0.2% |  |  |  |  |  |  | COc1ccc(N2CCOCC2)c2sc(NC(=O)N3CCC(C)(O)CC3)nc12 [Tozadenant, reference compound] | Mouse IFN-γ [nM] ([2]; IFN-γ rescue, 48 h, CGS-21680 1 μM, BALB/c Pan T cells): NA (< 50% rescue); Mouse T-Cell IL-2 [nM] ([2]; IL-2 rescue, 24 h, CGS-21680 1 μM, BALB/c Pan T cells): NA (< 50% rescue); CL ([3]; PK data in mouse, iv): 88.68 L/h/kg; Vss [L/kg] ([3]; PK data in mouse, iv): 2,03 L/kg; t1/2 [h] ([3]; PK data in mouse, iv): 0,184 h; CMax (iv) @ 1 mg/kg ([3]; PK data in mouse, iv): 337 ng/mL
 |  |  |  |  |  |  | O=c1[nH]c(=O)c2nc3ccccc3nc2[nH]1 [alloxazine, 2,4-dioxobenzopteridine] | affinity for A2B receptors [1]: mid to high nM range
12.5 @ 0.2% | < 100 | > 1000 | > 1000 | > 1000 | 1.13 | 5.65 | COc1ccc(-c2ccccc2)c2ncc(NC(=O)N3CCC(C)(O)CC3)nc12 [compound 2, 4-Hydroxy-4-methyl-piperidine-1-carboxylic acid (8-methoxy-5-phenyl-quinoxalin-2-yl)-amide] | IC50 [2, 8]: 400 nM; IC50 ([2]; 48 h, read-out: Mouse IFN-γ): 600 nM; half-life ([3]; plasma, iv): 142 min; Cmax ([3]; plasma, iv): 732 ng/mL
1.8 @ 0.2% | < 100 | < 1000 | > 1000 | > 1000 | 0.811 | 18.2 | C#CCC1(O)CCN(C(=O)Nc2cnc3c(C4CCOCC4)ccc(OC)c3n2)CC1 [compound 10] | half-life ([3]; plasma, iv): 33 min; Cmax ([3]; plasma, iv): 1090 ng/mL
6.2 @ 0.2% | < 100 | < 1000 | > 1000 | > 1000 | 0.82 | 3.78 | COc1ncc(-c2ccccc2)c2ncc(NC(=O)N3CCC(C)(O)CC3)nc12 [compound 27, 4-Hydroxy-4-methyl-piperidine-1-carboxylic acid (5-methoxy-8-phenyl-pyrido[3,4-b]pyrazin-3-yl)-amide] | IC50 [2, 8]: 375 nM; IC50 ([2]; 48 h, read-out: Mouse IFN-γ): 333 nM; half-life ([3]; plasma, iv): 154 min; Cmax ([3]; plasma, iv): 983 ng/mL
 | < 100 | < 1000 | < 1000 | < 100 |  |  | COc1ccc(C2=CCOC2)c2ncc(NC(=O)C3CC3)nc12 [compound 141, N-[5-(2,5-dihydrofuran-3-yl)-8-methoxyquinoxalin-2-yl]cyclopropanecarboxamide] | 
 | < 10 | < 1000 | < 1000 | < 100 |  |  | COCCOc1cccc(-c2ccc(OC)c3nc(NC(=O)C4CC4)cnc23)c1 [compound 147, N-{8-methoxy-5-[3-(2-methoxyethoxy)phenyl]quinoxalin-2-yl}cyclopropanecarboxamide] | 
 | < 10 | < 1000 | > 1000 | < 100 |  |  | COCCOc1cccc(-c2ccc(OC)c3nc(NC(=O)c4cnc(C)o4)cnc23)c1 [compound 148, N-{8-methoxy-5-[3-(2-methoxyethoxy)phenyl]quinoxalin-2-yl}-2-methyl-1,3-oxazole-5-carboxamide] | 
 | < 100 | < 1000 | > 1000 | > 1000 |  |  | COCCOc1cccc(-c2ccc(OC)c3nc(NC(=O)c4cnc(C)s4)cnc23)c1 [compound 151, N-{8-methoxy-5-[3-(2-methoxyethoxy)phenyl]quinoxalin-2-yl}-2-methyl-1,3-thiazole-5-carboxamide] | 
 | < 100 | < 1000 | > 1000 | > 1000 |  |  | COc1ncc(-c2ccc(OC)c3nc(NC(=O)C4CC4)cnc23)cn1 [compound 156, N-[8-methoxy-5-(2-methoxypyrimidin-5-yl)quinoxalin-2-yl]cyclopropanecarboxamide] | 
 |  |  |  |  |  |  | CCCn1c(=O)[nH]c(=O)c2[nH]cnc21 [enprofylline, 3-n-propylxanthine] | affinity for A2B receptors [1]: mid to high nM range

SMILES | Feces iv [%] ([3]; PK data in mouse) | IC50 [4] [nM] | IC50 [5] [nM] | IC50 [6] [nM] | IC50 [7] [nM] | Vd ([3]; plasma, iv) [L/kg] | clearance ([3]; plasma, iv) [mL/min/kg] | further results
COc1ccc(C2CCOCC2)c2ncc(NC(=O)N3CCC(C)(O)CC3)nc12 [compound 5] | 4.2 @ 0.2% | < 100 | > 1000 | > 1000 | > 1000 | 1.24 | 19.7 | CMax (iv) @ 1 mg/kg ([3]; PK data in mouse, iv): 908 ng/mL; half-life ([3]; in vivo, iv): 55.2 min
